Measurements: ChEMBL document CHEMBL3525934 (Drug Metab Dispos, 2013)

B1: Cytochrome P450 2D6 (Homo sapiens) (protein)
chain: MGLEALVPLAVIVAIFLLLVDLMHRRQRWAARYPPGPLPLPGLGNLLHVDFQNTPYCFDQLRRRFGDVFSLQLAWTPVVVLNGLAAVREALVTHGEDTADRPPVPITQILGFGPRSQGVFLARYGPAWREQRRFSVSTLRNLGLGKKSLEQWVTEEAACLCAAFANHSGRPFRPNGLLDKAVSNVIASLTCGRRFEYDDPRFLRLLDLAQEGLKEESGFLREVLNAVPVLLHIPALAGKVLRFQKAFLTQLDELLTEHRMTWDPAQPPRDLTEAFLAEMEKAKGNPESSFNDENLRIVVADLFSAGMVTTSTTLAWGLLLMILHPDVQRRVQQEIDDVIGQVRRPEMGDQAHMPYTTAVIHEVQRFGDIVPLGVTHMTSRDIEVQGFRIPKGTTLITNLSSVLKDEAVWEKPFRFHPEHFLDAQGHFVKPEAFLPFSAGRRACLGEPLARMELFLFFTSLLQHFSFSVPTGQPRPSHHGVFAFLVSPSPYELCAVPR

How the values were obtained:
Type in all cases: ADME
Liver microsome = assay: Drug level in pooled human liver microsomes treated with clozapine at 100 uM after 30 mins by HPLC analysis; conditions: 0.5 h
[1] = substrate: CN1CCN(C2=Nc3cc(Cl)ccc3Nc3ccccc32)CC1; assay: Drug metabolism in supersomes expressing human recombinant CYP2D6 assessed as enzyme-mediated N-demethyl clozapine metabolite formation after 15 mins by Michaelis-Menten equation analysis
[2] = substrate: CN1CCN(C2=Nc3cc(Cl)ccc3Nc3ccccc32)CC1; assay: Drug metabolism in supersomes expressing human recombinant CYP2D6 assessed as enzyme-mediated total GSH conjugate formation after 15 mins by Michaelis-Menten equation analysis
[3] = substrate: CN1CCN(C2=Nc3cc(Cl)ccc3Nc3ccccc32)CC1; assay: Drug metabolism in supersomes expressing human recombinant CYP2D6 assessed as enzyme-mediated clozapine N-oxide metabolite formation after 15 mins by Michaelis-Menten equation analysis

Molecule | Drug metabolism (Liver microsome) | also measured
CN1CCN(C2=Nc3c(ccc(Cl)c3O)Nc3ccccc32)CC1 | metabolite_detected | 
C[N+]1([O-])CCN(C2=Nc3cc(Cl)ccc3Nc3ccccc32)CC1 | metabolite_detected | 
Clc1ccc2c(c1)N=C(N1CCNCC1)c1ccccc1N2 [N-DESMETHYLCLOZAPINE] | metabolite_detected | 
CNCCNC1=Nc2cc(Cl)ccc2Nc2ccccc21 | metabolite_detected | 
NCCNC1=Nc2cc(Cl)ccc2Nc2ccccc21 | metabolite_detected | 
CN1CCN(C2=Nc3cc(Cl)c(O)cc3Nc3ccccc32)CC1 | metabolite_detected | 
B1 |  | Km [1]: 25.3 µM; Km [2]: 21.9 µM; Km [3]: 84.1 µM
